Experimental data as given in article PMC9356275, “A quantitative high-throughput screen identifies compounds that lower expression of the SCA2-and ALS-associated gene ATXN2” (The Journal of Biological Chemistry, 2022).
“And” between values parts separate entries of the source, which are not always exact repeats. Identical values can stand only once. Counter-ions that a name gives are not always drawn. Like-named read-outs stand apart in the source and are kept apart here.

Experiments:
Assay type in all cases: cell-based, human
ATXN2-luc [1] = experiment: NCATS qHTS (LOPAC pilot, primary and confirmation): ATXN2-luc in S2 cells, 1536-well, Steady-Glo; details: for AC50 / Efficacy / Inf Activity / Log AC50 / Hill Coef / Zero Activity / Max Resp: LOPAC library screening optimization; for Efficacy / Inf Activity / Hill Coef / Zero Activity: curve-fit parameter; for Curve Class: LOPAC library (1,280 compounds) screening optimization, signed sub-classes (-1.1, -2.2, -3 ...); for Max Resp: response at highest tested concentration
Method: We next performed a pilot screen assay to optimize the 1536-well qHTS using S2 cells. […] Cytotoxicity was determined using a multiplexed viability assay (CellTiter-Fluor, a fluorescence-based viability assay using Gly-Phe-7-amino-4-trifluoromethylcoumarin substrate).
CellTiter-Fluor was used to determine compound effect on cell viability, and Steady-Glo was used to measure luciferase in a multiplexed assay.
The primary assay was conducted at the NCATS NIH Chemical Genomics Center laboratory. About 4 μl of S2 cell suspension in phenol red–free DMEM was dispensed into wells of 1536-well assay plates. […] Next, SteadyGlo luciferase substrate detection reagent (3 μl) was added to each well and incubated for an additional 5 min at room temperature. Luminescence was then measured on the ViewLux imager equipped with clear filters using a 2 s exposure. All screening operations were performed on a fully integrated robotic system (Kalypsys) containing one RX-130 and two RX-90 anthropomorphic robotic arms (Stäubli). Vehicle-only plates, with DMSO being pin-transferred to columns 5 to 48, were inserted uniformly at the beginning and the end of each library in order to monitor and record any shifts in assay performance.

ATXN2-luc [2] = experiment: MSSR pilot screen: ATXN2-luc luciferase assay (Bright-Glo) in H2 cells, single 10 μM dose; details: for SD from mean (ATXN2-luc, Z-score): H2 cells, single dose (title: 10 μM compound), overnight; for ¦Score/1SD¦: absolute score divided by 1SD (0.891 or 0.9)
ATXN2-luc [3] = experiment: MSSR hit retest: ATXN2-luc luciferase assay, average of H2 and S1 cells (1 and 10 uM); details: Homo sapiens; for activity at 1 µM: read-out: H2&S1 ave luc 1uM; for activity at 10 µM: head line r3 10uM
Text: (§1) Supplement mmc2.xlsx, sheet "43 annotated compounds"

H2 and S1 cells = experiment: Paired MTT viability assay, average of H2 and S1 cells (1 and 10 uM); details: Homo sapiens
Text: as §1

ATXN2-luc [4] = experiment: Secondary assays: ATXN2-luc in S2 and H2 cells, 12 doses, Bright-Glo; details: Homo sapiens; H2 and S2 values used as replicates, 24 h; read-out: IC50 for lowering ATXN2-luc
Method: The values for H2 and S2 were used as replicates to calculate IC50s and to assess cell viability.
Compounds were plated at 2× concentrations in phenol red–free DMEM in 25 μl in 384-well plates with each compound dose plated in triplicate. An equal volume of S2, H2, or SC cells (24,000 cells/well) suspended in phenol red–free DMEM with 10% fetal bovine serum and 1× penicillin/streptomycin were added. Cells were grown 24 h and then assayed first by using the CellTiter-Fluor reagent (20 μl) followed by the addition of Bright-Glo (65 μl) luciferase assay, using a multimode plate reader (Beckman; DT880). Values were reported as the mean ± SD with n = 3. IC50s were determined by the Hill coefficient method using an online tool (https://www.aatbio.com/tools/ic50-calculator).

[5] = Homo sapiens, logarithm of AC50 (negative values), read-out: Log AC50 (converted)
[6] = logarithm of AC50 (negative values)
[7] = pilot screen at 10 µM compound, H2 cells expressing ATXN2-luc
[8] = 1 uM compound, average of H2 and S1 cells
[9] = average of H2 and S1 cells, read-out: H2&S1 ave luc 10uM
[10] = 1 uM compound, read-out: H2&S1 ave MTT 1uM
[11] = 10 uM compound, read-out: H2&S1 ave MTT 10uM

Row | SMILES | AC50 (ATXN2-luc [1]; [5]) | AC50 (ATXN2-luc [1]; Homo sapiens, read-out: AC50) | Efficacy (ATXN2-luc [1]) | Inf Activity (ATXN2-luc [1]) | Curve Class (ATXN2-luc [1]) | Log AC50 (ATXN2-luc [1]; [6]) | AC50 (ATXN2-luc [1]; read-out: AC50) | also measured
1 | CC[C@@H](O)C(C[C@@H](C)N(C)C)(c1ccccc1)c1ccccc1.Cl [(-)-alpha-Methadol hydrochloride] | 31.6 µM | 31.6 µM | -53.231 | -52.9785 |  |  |  | 
2 | CC(C)NC[C@H](O)COc1cccc2ccccc12 [(S)-Propranolol hydrochloride] | 17.8 µM | 17.8 µM |  |  | -2.2 | -4.5 | 31.6 µM | 
3 | Nc1ncnc2c1c(I)cn2[C@@H]1C[C@H](N)[C@@H](O)[C@H]1O [A-134974 dihydrochloride hydrate] | 10 µM | 10 µM |  |  | -2.1 | -4.9 | 12.6 µM | 
4 | Clc1ccc2c(c1)C(N1CCNCC1)=Nc1ccccc1O2 [Amoxapine] | 11.2 µM | 11.2 µM | -60.2873 | -56.594 | -2.2 |  |  | 
5 | O=C(Cc1ccc(Cl)c(Cl)c1)N1CCCCC1CN1CCCC1 (stereo not drawn) [BRL 52537 hydrochloride] | 35.5 µM | 35.5 µM | -82.8908 | -85.8462 |  |  |  | 
6 | OC(CCN1CCCCC1)(c1ccccc1)C1CC2C=CC1C2 (stereo not drawn) [Biperiden hydrochloride] | 17.8 µM | 17.8 µM |  |  | -2.2 | -4.6 | 25.1 µM | 
7 | CCc1cccc(N(C)C(N)=Nc2cccc3ccccc23)c1 [CNS-1102] | 12.6 µM | 12.6 µM |  |  | -2.2 | -4.7 | 20 µM | 
8 | C[C@@H]1O[C@@H](O[C@H]2CC[C@]3(C=O)[C@H]4CC[C@]5(C)[C@@H](C6=CC(=O)OC6)CC[C@]5(O)[C@@H]4CC[C@]3(O)C2)[C@H](O)[C@H](O)[C@H]1O [CONVALLATOXIN] |  |  |  |  |  |  |  | SD from mean (ATXN2-luc, Z-score) (ATXN2-luc [2]): -3.689 SD; SD from mean (pilot screen) (ATXN2-luc [2]; pilot screen): -3.689 SD; SD from mean (pilot screen) (ATXN2-luc [2]; [7]): -3.689; ¦Score/1SD¦ (ATXN2-luc [2]; pilot screen): 4.10; activity at 1 µM (ATXN2-luc [3]; [8]): 12%; activity at 10 µM (ATXN2-luc [3]; [9]): 11%; viability at 1 µM (H2 and S1 cells; [10]): 62.2%; viability at 10 µM (H2 and S1 cells; [11]): 70%
9 | CO[C@H]1C[C@H](O[C@H]2CC[C@]3(C=O)[C@H]4CC[C@]5(C)[C@@H](C6=CC(=O)OC6)CC[C@]5(O)[C@@H]4CC[C@]3(O)C2)O[C@H](C)[C@H]1O [CYMARIN] |  |  |  |  |  |  |  | SD from mean (ATXN2-luc, Z-score) (ATXN2-luc [2]): -4.099 SD; SD from mean (pilot screen) (ATXN2-luc [2]; pilot screen): -4.099 SD; SD from mean (pilot screen) (ATXN2-luc [2]; [7]): -4.099; ¦Score/1SD¦ (ATXN2-luc [2]; pilot screen): 4.55; activity at 1 µM (ATXN2-luc [3]): 14%; activity (ATXN2-luc [3]; read-out: H2&S1 ave luc 10uM): 16%; viability at 1 µM (H2 and S1 cells; read-out: H2&S1 ave MTT 1uM, 1 uM compound): 54.2%; viability at 10 µM (H2 and S1 cells; read-out: H2&S1 ave MTT 10uM, 10 uM compound): 59.3%
10 | CC(C)=CCc1c(O)cc2occ(-c3ccc4c(c3)OCO4)c(=O)c2c1O [DERRUBONE] |  |  |  |  |  |  |  | SD from mean (ATXN2-luc, Z-score) (ATXN2-luc [2]): -3.621 SD; SD from mean (pilot screen) (ATXN2-luc [2]; pilot screen): -3.621 SD; SD from mean (pilot screen) (ATXN2-luc [2]; [7]): -3.621; ¦Score/1SD¦ (ATXN2-luc [2]; pilot screen): 4.02; activity at 1 µM (ATXN2-luc [3]; [8]): 11%; activity at 10 µM (ATXN2-luc [3]; [9]): 15%; viability at 1 µM (H2 and S1 cells; [10]): 107%; viability at 10 µM (H2 and S1 cells; [11]): 101%
11 | CNCCCN1c2ccccc2CCc2ccccc21 [Desipramine hydrochloride] | 12.6 µM | 12.6 µM |  |  | -2.2 | -4.85 | 14.1 µM | 
12 | CNCCC(Oc1ccc(C(F)(F)F)cc1)c1ccccc1 (stereo not drawn) [Fluoxetine hydrochloride] | 12.6 µM | 12.6 µM |  |  | -2.1 | -4.85 | 14.1 µM | 
13 | c1ccc(CN2CCC3(CCCc4ccccc43)CC2)cc1 [L-687,384 hydrochloride] | 14.1 µM | 14.1 µM | -56.3105 | -51.8105 | -2.2 |  |  | 
14 | CC(=O)O[C@H]1C[C@H](O[C@H]2[C@@H](O)C[C@H](O[C@H]3[C@@H](O)C[C@H](OC4CC[C@@]5(C)C(CC[C@@H]6[C@@H]5CC[C@]5(C)[C@@H](C7=CC(=O)OC7)[C@@H](O)C[C@]65O)C4)O[C@@H]3C)O[C@@H]2C)O[C@H](C)[C@H]1O[C@@H]1O[C@H](CO)[C@@H](O)[C@H](O)[C@H]1O (stereo partly drawn) [Lanatoside B] | 1.26 µM | 1.26 µM | -78.0523 | -90.3741 |  |  |  | 
15 | CNCCC(Oc1ccc(C(F)(F)F)cc1)c1ccccc1.Cl (stereo not drawn) [MLS001076338-01] |  |  | -91.3933 | -89.6057 | -3 | -4.6 | 25.1 µM | Hill Coef (ATXN2-luc [1]): 3.5722; Zero Activity (ATXN2-luc [1]): 1.7876; Max Resp (ATXN2-luc [1]): -84.8539
16 | CNCC[C@H](Oc1ccc(C(F)(F)F)cc1)c1ccccc1.Cl [MLS002153300-01] |  |  | -72.8775 | -81.66 | -2.2 | -4.45 | 35.5 µM | Hill Coef (ATXN2-luc [1]): 2.1211; Zero Activity (ATXN2-luc [1]): -8.7824; Max Resp (ATXN2-luc [1]): -62.2424
17 | Oc1ccc2c3c1O[C@H]1c4[nH]c5ccccc5c4C[C@@]4(O)[C@@H](C2)N(CC2CC2)CC[C@]314 [Naltrindole hydrochloride] | 14.1 µM | 14.1 µM |  |  | -2.2 | -4.75 | 17.8 µM | 
18 | CNCCCC1c2ccccc2C=Cc2ccccc21 [Protriptyline hydrochloride] | 31.6 µM | 31.6 µM | -59.559 | -66.4303 |  |  |  | 
19 | C=C[C@H]1C[N@@]2CC[C@H]1C[C@H]2[C@H](O)c1ccnc2ccc(OC)cc12 [Quinine sulfate] | 35.5 µM | 35.5 µM | -70.489 | -66.665 |  |  |  | 
20 | CC(C)NC[C@@H](O)c1ccc(O)c(O)c1 [S(+)-Isoproterenol (+)-bitartrate] | 31.6 µM | 31.6 µM | -77.2877 | -79.7998 |  |  |  | 
21 | CNCC[C@H](Oc1ccc(C(F)(F)F)cc1)c1ccccc1 [S-(+)-Fluoxetine hydrochloride] | 14.1 µM | 14.1 µM |  |  | -2.2 | -4.8 | 15.8 µM | 
22 | C[C@@H]1O[C@@H](O[C@H]2C[C@@H](O)[C@]3(CO)[C@@H]4[C@@H](O)C[C@]5(C)[C@H](C6=CC(=O)OC6)CC[C@@]5(O)[C@H]4CC[C@@]3(O)C2)[C@H](O)[C@H](O)[C@@H]1O.O.O.O.O.O.O.O.O [Strophantine octahydrate] | 0.0891 µM | 0.0891 µM | -95.9071 | -89.7119 |  |  |  | SD from mean (ATXN2-luc, Z-score) (ATXN2-luc [2]): -3.624 SD
23 | Nc1nc(=S)c2ncn([C@@H]3O[C@H](CO)[C@@H](O)[C@H]3O)c2[nH]1 [Thioguanosine] | 3.55 µM | 3.55 µM | -64.1845 | -62.8466 |  |  |  | 
24 | CNCC[C@@H](Oc1ccccc1C)c1ccccc1 [Tomoxetine] | 28.2 µM | 28.2 µM | -86.2041 | -86.6862 | -2.2 |  |  | 
25 | C[C@H](N)CN1CCc2ccc(Br)cc21 [VER-3323 hemifumarate salt] | 11.2 µM | 11.2 µM |  |  | -2.2 | -4.8 | 15.8 µM | 
26 | C[C@@H]1O[C@@H](O[C@H]2C[C@@H](O)[C@]3(CO)[C@H]4[C@H](O)C[C@]5(C)[C@@H]([C@H]6COC(=O)C6)CC[C@]5(O)[C@@H]4CC[C@]3(O)C2)[C@H](O)[C@H](O)[C@H]1O [dihydroouabain] |  |  |  |  |  |  |  | Hill Coef (ATXN2-luc [1]): 3.0654 and 2.7202 and 1.8851 and 1.6604
27 | CC(C)c1cc(-c2n[nH]c(=O)n2-c2ccc3c(ccn3C)c2)c(O)cc1O [ganetespib] |  |  |  |  |  |  |  | IC50 (ATXN2-luc [4]): 0.03 µM
